Reference: ChEMBL document CHEMBL5154747, “Discovery of new carbonic anhydrase IX inhibitors as anticancer agents by toning the hydrophobic and hydrophilic rims of the active site to encounter the dual-tail approach” (Eur J Med Chem, 2022)

Tests used:
SNB-75 = assay: Anticancer activity against human SNB-75 cells assessed as cell growth inhibition at 10 uM incubated for 48 hrs by SRB assay relative to control; type: functional; settings: read-out: GI
MDA-MB-231 = assay: Anticancer activity against human MDA-MB-231 cells assessed as cell growth inhibition at 10 uM incubated for 48 hrs by SRB assay relative to control; type: functional; settings: read-out: GI
HT-29 = assay: Anticancer activity against human HT-29 cells assessed as cell growth inhibition at 10 uM incubated for 48 hrs by SRB assay relative to control; type: functional; settings: read-out: GI
OVCAR-8 = assay: Anticancer activity against human OVCAR-8 cells assessed as cell growth inhibition at 10 uM incubated for 48 hrs by SRB assay relative to control; type: functional; settings: read-out: GI
A549 = assay: Anticancer activity against human A549 cells assessed as cell growth inhibition at 10 uM incubated for 48 hrs by SRB assay relative to control; type: functional; settings: read-out: GI
COLO 205 = assay: Anticancer activity against human COLO 205 cells assessed as cell growth inhibition at 10 uM incubated for 48 hrs by SRB assay relative to control; type: functional; settings: read-out: GI
RXF 393 = assay: Anticancer activity against human RXF 393 cells assessed as cell growth inhibition at 10 uM incubated for 48 hrs by SRB assay relative to control; type: functional; settings: read-out: GI
RPMI-8226 = assay: Anticancer activity against human RPMI-8226 cells assessed as cell growth inhibition at 10 uM incubated for 48 hrs by SRB assay relative to control; type: functional; settings: read-out: GI
MDA-MB-468 = assay: Anticancer activity against human MDA-MB-468 cells assessed as cell growth inhibition at 10 uM incubated for 48 hrs by SRB assay relative to control; type: functional; settings: read-out: GI
TK-10 = assay: Anticancer activity against human TK-10 cells assessed as cell growth inhibition at 10 uM incubated for 48 hrs by SRB assay relative to control; type: functional; settings: read-out: GI
NCI-H460 = assay: Anticancer activity against human NCI-H460 cells assessed as cell growth inhibition at 10 uM incubated for 48 hrs by SRB assay relative to control; type: functional; settings: read-out: GI
PC-3 = assay: Anticancer activity against human PC-3 cells assessed as cell growth inhibition at 10 uM incubated for 48 hrs by SRB assay relative to control; type: functional; settings: read-out: GI
Hs-578T = assay: Anticancer activity against human Hs-578T cells assessed as cell growth inhibition at 10 uM incubated for 48 hrs by SRB assay relative to control; type: functional; settings: read-out: GI
786-0 = assay: Anticancer activity against human 786-0 cells assessed as cell growth inhibition at 10 uM incubated for 48 hrs by SRB assay relative to control; type: functional; settings: read-out: GI
EKVX = assay: Anticancer activity against human EKVX cells assessed as cell growth inhibition at 10 uM incubated for 48 hrs by SRB assay relative to control; type: functional; settings: read-out: GI
SF-539 = assay: Anticancer activity against human SF-539 cells assessed as cell growth inhibition at 10 uM incubated for 48 hrs by SRB assay relative to control; type: functional; settings: read-out: GI
SK-MEL-5 = assay: Anticancer activity against human SK-MEL-5 cells assessed as cell growth inhibition at 10 uM incubated for 48 hrs by SRB assay relative to control; type: functional; settings: read-out: GI
OVCAR-4 = assay: Anticancer activity against human OVCAR-4 cells assessed as cell growth inhibition at 10 uM incubated for 48 hrs by SRB assay relative to control; type: functional; settings: read-out: GI
NCI-H522 = assay: Anticancer activity against human NCI-H522 cells assessed as cell growth inhibition at 10 uM incubated for 48 hrs by SRB assay relative to control; type: functional; settings: read-out: GI
MCF7 = assay: Anticancer activity against human MCF7 cells assessed as cell growth inhibition at 10 uM incubated for 48 hrs by SRB assay relative to control; type: functional; settings: read-out: GI
K562 = assay: Anticancer activity against human K562 cells assessed as cell growth inhibition at 10 uM incubated for 48 hrs by SRB assay relative to control; type: functional; settings: read-out: GI
OVCAR-3 = assay: Anticancer activity against human OVCAR-3 cells assessed as cell growth inhibition at 10 uM incubated for 48 hrs by SRB assay relative to control; type: functional; settings: read-out: GI
SF-268 = assay: Anticancer activity against human SF-268 cells assessed as cell growth inhibition at 10 uM incubated for 48 hrs by SRB assay relative to control; type: functional; settings: read-out: GI
SNB-19 = assay: Anticancer activity against human SNB-19 cells assessed as cell growth inhibition at 10 uM incubated for 48 hrs by SRB assay relative to control; type: functional; settings: read-out: GI
KM12 = assay: Anticancer activity against human KM12 cells assessed as cell growth inhibition at 10 uM incubated for 48 hrs by SRB assay relative to control; type: functional; settings: read-out: GI
HOP-92 = assay: Anticancer activity against human HOP-92 cells assessed as cell growth inhibition at 10 uM incubated for 48 hrs by SRB assay relative to control; type: functional; settings: read-out: GI
Carbonic anhydrase 9 = Carbonic anhydrase 9 (Homo sapiens, UniProt Q16790); assay: Inhibition of recombinant human CA 9 preincubated for 15 mins by phenol red dye based stopped flow CO2 hydration assay
NCI-H23 = assay: Anticancer activity against human NCI-H23 cells assessed as cell growth inhibition at 10 uM incubated for 48 hrs by SRB assay relative to control; type: functional; settings: read-out: GI
HCT-15 = assay: Anticancer activity against human HCT-15 cells assessed as cell growth inhibition at 10 uM incubated for 48 hrs by SRB assay relative to control; type: functional; settings: read-out: GI
HOP-62 = assay: Anticancer activity against human HOP-62 cells assessed as cell growth inhibition at 10 uM incubated for 48 hrs by SRB assay relative to control; type: functional; settings: read-out: GI
OVCAR-5 = assay: Anticancer activity against human OVCAR-5 cells assessed as cell growth inhibition at 10 uM incubated for 48 hrs by SRB assay relative to control; type: functional; settings: read-out: GI
U-251 = assay: Anticancer activity against human U-251 cells assessed as cell growth inhibition at 10 uM incubated for 48 hrs by SRB assay relative to control; type: functional; settings: read-out: GI
T47D = assay: Anticancer activity against human T47D cells assessed as cell growth inhibition at 10 uM incubated for 48 hrs by SRB assay relative to control; type: functional; settings: read-out: GI
SK-MEL-2 = assay: Anticancer activity against human SK-MEL-2 cells assessed as cell growth inhibition at 10 uM incubated for 48 hrs by SRB assay relative to control; type: functional; settings: read-out: GI
LOX IMVI = assay: Anticancer activity against human LOX IMVI cells assessed as cell growth inhibition at 10 uM incubated for 48 hrs by SRB assay relative to control; type: functional; settings: read-out: GI
SN12C = assay: Anticancer activity against human SN12C cells assessed as cell growth inhibition at 10 uM incubated for 48 hrs by SRB assay relative to control; type: functional; settings: read-out: GI
A498 = assay: Anticancer activity against human A498 cells assessed as cell growth inhibition at 10 uM incubated for 48 hrs by SRB assay relative to control; type: functional; settings: read-out: GI
UO-31 = assay: Anticancer activity against human UO-31 cells assessed as cell growth inhibition at 10 uM incubated for 48 hrs by SRB assay relative to control; type: functional; settings: read-out: GI
Malme-3M = assay: Anticancer activity against human Malme-3M cells assessed as cell growth inhibition at 10 uM incubated for 48 hrs by SRB assay relative to control; type: functional; settings: read-out: GI
MOLT-4 = assay: Anticancer activity against human MOLT-4 cells assessed as cell growth inhibition at 10 uM incubated for 48 hrs by SRB assay relative to control; type: functional; settings: read-out: GI

SMILES | inhibition of growth at 10 µM (SNB-75) [%] | inhibition of growth at 10 µM (MDA-MB-231) [%] | inhibition of growth at 10 µM (HT-29) [%] | inhibition of growth at 10 µM (OVCAR-8) [%] | inhibition of growth at 10 µM (A549) [%] | inhibition of growth at 10 µM (COLO 205) [%] | inhibition of growth at 10 µM (RXF 393) [%] | inhibition of growth at 10 µM (RPMI-8226) [%] | inhibition of growth at 10 µM (MDA-MB-468) [%] | inhibition of growth at 10 µM (TK-10) [%] | inhibition of growth at 10 µM (NCI-H460) [%] | inhibition of growth at 10 µM (PC-3) [%] | inhibition of growth at 10 µM (Hs-578T) [%] | inhibition of growth at 10 µM (786-0) [%] | inhibition of growth at 10 µM (EKVX) [%] | inhibition of growth at 10 µM (SF-539) [%] | inhibition of growth at 10 µM (SK-MEL-5) [%] | inhibition of growth at 10 µM (OVCAR-4) [%] | inhibition of growth at 10 µM (NCI-H522) [%] | inhibition of growth at 10 µM (MCF7) [%] | also measured
CCCCc1nc(/C=N/Nc2nc(Nc3ccccc3)nc(Nc3ccc(S(N)(=O)=O)cc3)n2)c(Cl)[nH]1 | < 10 | 33 | < 10 | < 10 | < 10 | 27 | < 10 | < 10 | 112 | < 10 | < 10 | 17 | 22 | < 10 | < 10 | 18 | 24 | 19 | 58 | 53 | inhibition of growth at 10 µM (K562): 62%; inhibition of growth at 10 µM (OVCAR-3): 53%; inhibition of growth at 10 µM (SF-268): 34%; inhibition of growth at 10 µM (SNB-19): 69%; inhibition of growth at 10 µM (KM12): < 10%; inhibition of growth at 10 µM (HOP-92): 39%; Ki (Carbonic anhydrase 9): 259 nM; inhibition of growth at 10 µM (NCI-H23): < 10%; inhibition of growth at 10 µM (HCT-15): < 10%; inhibition of growth at 10 µM (HOP-62): < 10%; inhibition of growth at 10 µM (OVCAR-5): < 10%; inhibition of growth at 10 µM (U-251): 101%; inhibition of growth at 10 µM (T47D): 85%; inhibition of growth at 10 µM (SK-MEL-2): 34%; inhibition of growth at 10 µM (LOX IMVI): 58%; inhibition of growth at 10 µM (SN12C): < 10%; inhibition of growth at 10 µM (A498): 10%; inhibition of growth at 10 µM (UO-31): 14%; inhibition of growth at 10 µM (Malme-3M): < 10%; inhibition of growth at 10 µM (MOLT-4): 58%
NS(=O)(=O)c1ccc(Nc2nc(N/N=C/c3ccccn3)nc(Nc3ccccc3)n2)cc1 | 125 | 129 | 93 | 96 | 64 | 142 | 174 | 63 | 129 | 97 | 96 | 107 | 118 | 91 | 86 | 142 | 184 | 120 | 132 | 98 | inhibition of growth at 10 µM (K562): 87%; inhibition of growth at 10 µM (OVCAR-3): 115%; inhibition of growth at 10 µM (SF-268): 122%; inhibition of growth at 10 µM (SNB-19): 90%; inhibition of growth at 10 µM (KM12): 95%; inhibition of growth at 10 µM (HOP-92): 146%; Ki (Carbonic anhydrase 9): 27.2 nM; inhibition of growth at 10 µM (NCI-H23): 107%; inhibition of growth at 10 µM (HCT-15): 82%; inhibition of growth at 10 µM (HOP-62): 128%; inhibition of growth at 10 µM (OVCAR-5): 90%; inhibition of growth at 10 µM (U-251): 155%; inhibition of growth at 10 µM (T47D): 118%; inhibition of growth at 10 µM (SK-MEL-2): 182%; inhibition of growth at 10 µM (LOX IMVI): 143%; inhibition of growth at 10 µM (SN12C): 97%; inhibition of growth at 10 µM (A498): 167%; inhibition of growth at 10 µM (UO-31): 82%; inhibition of growth at 10 µM (Malme-3M): 168%; inhibition of growth at 10 µM (MOLT-4): 96%
